Results taken from BindingDB's records for patent US20250091994 (Kobe University, 2025).

Biological target: GTPase HRas [G12V] (Homo sapiens, UniProt P01112, G12V)
Experiment: In Vitro Ras-Raf Binding Inhibitory Activity Assay
Procedure: The in vitro Ras-Raf binding inhibitory activity of the compound of the present invention was evaluated by an ELISA method described below. GST-c-Raf-1 RBD diluted with a Ras-Raf binding buffer (50 mM Tris-HCl pH7.4, 150 mM NaCl, 5 mM MgCl2, 1 mM EDTA, and 1% Triton-X100) was added to each well of a glutathione-coated 96-well plate (Thermo Fisher Scientific.), and was incubated at 30° C. for 1 hour, to immobilize Raf on the well. The unbound free Raf was eliminated by washing the well with the Ras-Raf binding buffer three times. Subsequently, GTPTS-bound HRasG12V diluted with the Ras-Raf binding buffer and each compound solution (final DMSO concentration: 10%) were applied to each well, and the resulting mixture was then incubated at 30° C. for 1 hour, so that Ras and Raf were allowed to bind to each other. Thereafter, the plate was washed with the Ras-Raf binding buffer twice, and was then subjected to a blocking treatment at room temperature for 20 minutes, using TBS-Tween {10 mM Tris-HCl pH 7.4, 150 mM NaCl, and 0.05% (w/v) Tween-20}-5% (w/v) bovine serum albumin (BSA). After that, an anti-HRas antibody (C-20, Santa Cruz) or an anti-HRas antibody (259, Santa Cruz), which had been 1000 times diluted with TBS-Tween-5% BSA, was added to the reaction mixture, and incubated at room temperature for 1 hours. After the treatment with the primary antibody, the plate was washed with TBS-Tween-5% BSA three times, and a horseradish peroxidase-labeled secondary antibody against rabbit immunoglobulin G (GE Healthcare) of 1000 times diluted with TBS-Tween-5% BSA, was added to the plate, followed by incubation at room temperature for 1 hour. After the treatment with the secondary antibody, the plate was washed with TBS-Tween-5% BSA three times, and a substrate solution (TMB) was then added to the plate, followed by incubation at room temperature for 15 minutes for coloration. Finally, 2 M H2SO4 was added to stop color development (coloration reaction kit: Nacalai Tesque).

GTPase HRas [G12V], sequence (P01112 whole entry G12V, looked up): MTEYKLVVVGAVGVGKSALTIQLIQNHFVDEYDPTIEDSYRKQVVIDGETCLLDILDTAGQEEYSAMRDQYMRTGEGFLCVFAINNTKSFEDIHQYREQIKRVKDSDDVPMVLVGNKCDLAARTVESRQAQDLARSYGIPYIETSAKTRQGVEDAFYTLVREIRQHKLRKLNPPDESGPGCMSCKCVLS

IC50	Compound
0.3 µM	CC(=O)N1/C(=C/c2cc(-c3cccc(-c4cn[nH]c4)c3)c3cc(C(=O)N4CCOCC4)ccc3n2)C(=O)c2ccccc21 [US20250091994, Example 148]
6.4 µM	CC(=O)N1/C(=C/c2nc(C(=O)N3CCOCC3)cs2)C(=O)c2ccccc21 [US20250091994, Example 55]
2.4 µM	CC(=O)N1C(=Cc2cc(-c3ccc(-c4ccccc4)cc3)c3cc(C(=O)N4CCN(C5COC5)CC4)ccc3n2)C(=O)c2ccccc21 [US20250091994, Example 162]
4.1 µM	CC(=O)NCc1cccc2c1C(=O)/C(=C/c1ccc3cc(C(=O)N4CCOCC4)ccc3n1)N2C(C)=O [US20250091994, Example 106]
20 µM	COc1cc(C=C2C(=O)c3cccc(F)c3N2C(C)=O)ccc1OCC(=O)N1CCOCC1 [US20250091994, Example 105]

Second part, the compound before the results:

Compound	IC50
CCn1cc(-c2cc(/C=C3/C(=O)c4ccccc4N3C(C)=O)nc3ccc(C(=O)N4CCOCC4)cc23)cn1 [US20250091994, Example 178]	0.8 µM
CCOC(=O)N1C(=Cc2ccc(OCC(=O)N3CCOCC3)c(OC)c2)C(=O)c2ccccc21 [US20250091994, Example 123]	8.5 µM
CC(=O)N1CCc2ccc(-c3cc(/C=C4/C(=O)c5ccccc5N4C(C)=O)nc4ccc(CNC5CCOCC5)cc34)cc2C1 [US20250091994, Example 211]	0.6 µM
COc1cc(/C=C2/C(=O)c3ccccc3N2C(C)=O)ccc1/C=C/C(N)=O [US20250091994, Example 20]	10 µM
CC(=O)N1/C(=C\c2ccc3cc(C(=O)O)ccc3n2)C(=O)c2ccccc21 [US20250091994, Example 127]	2.1 µM
